pEC50: −log10 of the molar value. ≈ marks a conversion by molar mass, not a printed value. Where two headings read alike, the source gives them in different places. Positions of bridges follow the written chain, without caps; N, C: chain ends. Non-standard residues stand in square brackets, D forms with d. Residues, ends and D or L forms follow the SMILES beside them. ξ: configuration not given here. Lys(N3) = [N-]=[N+]=NCCCC[C@H](N)C(=O)O; R8 = C=CCCCCCC[C@@](C)(N)C(=O)O; ξαMeF = CC(N)(Cc1ccccc1)C(=O)O; Cba = N[C@@H](CC1CCC1)C(=O)O; S5 = C=CCCC[C@](C)(N)C(=O)O; hSer = N[C@@H](CCO)C(=O)O; βAla = NCCC(=O)O
Legend:
[1] = Lactate dehydrogenase (LDH) release assay; format: cell-based
In short: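 LDH release, fluorometric membrane-integrity read-out; HCT116 with stable p53-responsive β-lactamase reporter; 8000 cells/well; 0.5% DMSO final; geometric mean, n≥3 biological replicates.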

[2] = Solubility assay (kinetic solubility, PBS pH 7); format: physicochemical
In short: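 Values derive from peak-area ratios of sample versus a 100 µM standard, scaled by that standard's concentration.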

[3] = test system: Ca Ski cell line; settings: 72 h
Experimental: (§1) The medium for CellSensor™ p53RE-bla HCT-116 cells was McCoy’s 5 A Medium (GIBCO16600-002) supplied with 10% FBS (Hyclone, SH30406.05), 100 U/100ug/ml of Pen/Strep (SolarBio, P1400) and 5 μg/ml of blasticidin (GIBCO, A11139). The medium for Ca Ski cells was RPMI1640 (Hyclone, SH3080901B) supplied with 10% FBS and 100 U/100ug/ml of Pen/Strep. All cells were kept in humidified incubators with 5% CO2 at 37 °C. Culture media was changed after one day of subculturing and cells were passed again when there was 70–80% confluence. One day before the assay, the cells were trypsinized, collected, counted and viability was determined. […] The plates were kept in humidified incubators with 5% CO2 at 37 °C overnight. Compounds were prepared as a 10 point, 3x serial dilution in 100% DMSO, starting from a top concentration of 10 mM. […] At the end of the incubation the assay plate was equilibrated at room temperature for approximately 30 minutes prior to the addition of 25 uL of CellTiter-Glo® 2.0 Reagent. The assay plate was mixed for 2 minutes on an orbital shaker to induce cell lysis. Next, the plate was incubated at room temperature for 10 minutes to stabilize the luminescent signal prior to recording the luminescence on a plate reader.

[4] = test system: CellSensor p53RE-bla HCT-116 Cell Line; settings: 72 h
Experimental: as §1

[5] = in vitro; settings: Nanoclick permeability assay EC50
In short: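 Azido-peptide permeability was read as loss of NanoBRET signal (donor 450 nm, acceptor 610 nm) after adding NanoBret618-azide at 10 μM final.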

[6] = Experimental LogD (partition coefficient); settings: for logD: not stated, Partition Coeff LogD
[7] = pH 7, aqueous buffer, kinetic from dmso stock, pH 7, PBS, read-out: Solubility

Row | SMILES | pEC50 ([1]; LDH: Cytotoxicity assay EC50) | Solubility ([2]; pH 7, PBS) | pEC50 [3] | pEC50 [4] | cell entry EC50 [5] | Partition Coeff LogD [6] | solubility kinetic [2, 7] | logD [6] | pEC50 ([1]; LDH: Cytotoxicity assay: EC50) | solubility kinetic ([2]; pH 7, Solubility)
1 | CC(=O)N[C@@H](CCCCN=[N+]=[N-])C(=O)NCCC(=O)N[C@@H](CC(C)C)C(=O)N[C@H](C(=O)N[C@@H](Cc1ccccc1)C(=O)N[C@]1(C)CCCCCCC=CCCC[C@@](C)(C(=O)N[C@@H](C)C(=O)N[C@@H](CC(C)C)C(=O)N[C@@H](C)C(=O)N[C@@H](C)C(=O)N[C@@H](C)C(=O)N[C@H](C)C(N)=O)NC(=O)[C@H](CC2CCC2)NC(=O)[C@H](CCC(N)=O)NC(=O)[C@H](C)NC(=O)[C@H](Cc2c[nH]c3ccccc23)NC(=O)[C@H](Cc2ccc(O)cc2)NC(=O)[C@H](CCC(=O)O)NC1=O)[C@@H](C)O [MP-968] (Ac-[Lys(N3)][βAla]LTF[R8]EYWAQ[Cba][S5]ALAAA[dA]-NH2; staple 6-13) | < 4.29 | Poorly Behaved | 4.37 | 5.85 | 4.2 µM | Poorly Behaved |  |  |  | 
2 | CC(=O)N[C@@H](CCCCN=[N+]=[N-])C(=O)NCCC(=O)N[C@@H](CC(C)C)C(=O)N[C@H](C(=O)N[C@@H](Cc1ccccc1)C(=O)N[C@]1(C)CCCCCCC=CCCC[C@@](C)(C(=O)N[C@@H](C)C(=O)N[C@@H](C)C(=O)N[C@@H](C)C(=O)N[C@@H](C)C(=O)N[C@@H](CCC(=O)O)C(=O)N[C@H](C)C(N)=O)NC(=O)[C@H](CC2CCC2)NC(=O)[C@H](CCC(N)=O)NC(=O)[C@H](C)NC(=O)[C@H](Cc2c[nH]c3ccccc23)NC(=O)[C@H](Cc2ccc(O)cc2)NC(=O)[C@H](CCC(=O)O)NC1=O)[C@@H](C)O [MP-837] (Ac-[Lys(N3)][βAla]LTF[R8]EYWAQ[Cba][S5]AAAAE[dA]-NH2; staple 6-13) | < 4.29 |  | < 4.30 | 6.18 | 1.52 µM |  | 160 µM (≈ 356 µg/mL) | 2.53 |  | 
3 | CC(=O)N[C@@H](CCCCN=[N+]=[N-])C(=O)NCCC(=O)N[C@@H](CC(C)C)C(=O)N[C@H](C(=O)N[C@@H](Cc1ccccc1)C(=O)N[C@]1(C)CCCCCCC=CCCC[C@@](C)(C(=O)N[C@@H](C)C(=O)N[C@@H](CCO)C(=O)N[C@@H](C)C(=O)N[C@@H](C)C(=O)N[C@@H](C)C(=O)N[C@H](C)C(N)=O)NC(=O)[C@H](CC2CCC2)NC(=O)[C@H](CCC(N)=O)NC(=O)[C@H](C)NC(=O)[C@H](Cc2c[nH]c3ccccc23)NC(=O)[C@H](Cc2ccc(O)cc2)NC(=O)[C@H](CCC(=O)O)NC1=O)[C@@H](C)O [MP-831] (Ac-[Lys(N3)][βAla]LTF[R8]EYWAQ[Cba][S5]A[hSer]AAA[dA]-NH2; staple 6-13) | < 4.29 |  | < 4.30 | 6.37 | > 10 µM |  | 175 µM (≈ 385 µg/mL) | 3.13 |  | 
4 | CC(=O)N[C@@H](CCCCN=[N+]=[N-])C(=O)NCCC(=O)N[C@@H](CC(C)C)C(=O)N[C@H](C(=O)N[C@@H](Cc1ccccc1)C(=O)N[C@]1(C)CCCCCCC=CCCC[C@@](C)(C(=O)N[C@@H](C)C(=O)N[C@H](C)C(=O)N[C@@H](C)C(=O)N[C@H](C)C(=O)N[C@@H](C)C(=O)N[C@H](C)C(N)=O)NC(=O)[C@H](CC2CCC2)NC(=O)[C@H](CCC(N)=O)NC(=O)[C@H](C)NC(=O)[C@H](Cc2c[nH]c3ccccc23)NC(=O)[C@H](Cc2ccc(O)cc2)NC(=O)[C@H](CCC(=O)O)NC1=O)[C@@H](C)O [MP-056] (Ac-[Lys(N3)][βAla]LTF[R8]EYWAQ[Cba][S5]A[dA]A[dA]A[dA]-NH2; staple 6-13) |  |  | < 4.30 | 5.48 | 5.21 µM |  | 147 µM (≈ 319 µg/mL) | 2.83 | < 4.29 | 157 µM (≈ 340 µg/mL)
5 | CC(=O)N[C@@H](CCCCN=[N+]=[N-])C(=O)NCCC(=O)N[C@@H](CC(C)C)C(=O)N[C@H](C(=O)N[C@@H](Cc1ccccc1)C(=O)N[C@]1(C)CCCCCCC=CCCC[C@@](C)(C(=O)N[C@@H](C)C(=O)N[C@@H](C)C(=O)N[C@@H](C)C(=O)N[C@@H](C)C(=O)N[C@@H](C)C(=O)N[C@@H](CCC(=O)O)C(N)=O)NC(=O)[C@H](CC2CCC2)NC(=O)[C@H](CCC(N)=O)NC(=O)[C@H](C)NC(=O)[C@H](Cc2c[nH]c3ccccc23)NC(=O)[C@H](Cc2ccc(O)cc2)NC(=O)[C@H](CCC(=O)O)NC1=O)[C@@H](C)O [MP-836] (Ac-[Lys(N3)][βAla]LTF[R8]EYWAQ[Cba][S5]AAAAAE-NH2; staple 6-13) | < 4.29 |  | < 4.30 | 5.98 | 1.77 µM |  | 164 µM (≈ 365 µg/mL) | 2.43 |  | 
6 | CC(=O)N[C@@H](CCCCN=[N+]=[N-])C(=O)NCCC(=O)N[C@@H](CC(C)C)C(=O)N[C@H](C(=O)N[C@@H](Cc1ccccc1)C(=O)N[C@]1(C)CCCCCCC=CCCC[C@@](C)(C(=O)N[C@@H](C)C(=O)N[C@@H](C)C(=O)N[C@@H](Cc2ccccc2)C(=O)N[C@@H](C)C(=O)N[C@@H](C)C(=O)NC(C)(Cc2ccccc2)C(N)=O)NC(=O)[C@H](CC2CCC2)NC(=O)[C@H](CCC(N)=O)NC(=O)[C@H](C)NC(=O)[C@H](Cc2c[nH]c3ccccc23)NC(=O)[C@H](Cc2ccc(O)cc2)NC(=O)[C@H](CCC(=O)O)NC1=O)[C@@H](C)O (stereo partly shown) [MP-288] (Ac-[Lys(N3)][βAla]LTF[R8]EYWAQ[Cba][S5]AAFAA[ξαMeF]-NH2; staple 6-13) |  |  | < 4.30 | 5.56 | 1.58 µM |  | 12 µM (≈ 28 µg/mL) | 4.11 | < 4.29 | 
7 | CC(=O)N[C@@H](CCCCN=[N+]=[N-])C(=O)NCCC(=O)N[C@@H](CC(C)C)C(=O)N[C@H](C(=O)N[C@@H](Cc1ccccc1)C(=O)N[C@]1(C)CCCCCCC=CCCC[C@@](C)(C(=O)N[C@@H](CCC(=O)O)C(=O)N[C@@H](C)C(=O)N[C@@H](Cc2ccccc2)C(=O)N[C@@H](C)C(=O)N[C@@H](CCC(N)=O)C(=O)N[C@@H](Cc2ccccc2)C(N)=O)NC(=O)[C@H](CC2CCC2)NC(=O)[C@H](CCC(N)=O)NC(=O)[C@H](C)NC(=O)[C@H](Cc2c[nH]c3ccccc23)NC(=O)[C@H](Cc2ccc(O)cc2)NC(=O)[C@H](CCC(=O)O)NC1=O)[C@@H](C)O [MP-832] (Ac-[Lys(N3)][βAla]LTF[R8]EYWAQ[Cba][S5]EAFAQF-NH2; staple 6-13) | < 4.29 |  | 4.65 | 5.38 | 4.88 µM |  | 157 µM (≈ 382 µg/mL) | 3.01 |  | 
8 | CC(=O)N[C@@H](CCCCN=[N+]=[N-])C(=O)NCCC(=O)N[C@@H](CC(C)C)C(=O)N[C@H](C(=O)N[C@@H](Cc1ccccc1)C(=O)N[C@]1(C)CCCCCCC=CCCC[C@@](C)(C(=O)N[C@@H](CO)C(=O)N[C@@H](CCC(=O)O)C(=O)N[C@@H](C)C(N)=O)NC(=O)[C@H](CC2CCC2)NC(=O)[C@H](CCC(N)=O)NC(=O)[C@H](C)NC(=O)[C@H](Cc2c[nH]c3ccccc23)NC(=O)[C@H](Cc2ccc(O)cc2)NC(=O)[C@H](CCC(=O)O)NC1=O)[C@@H](C)O [MP-898] |  |  | < 4.30 | 5.12 | 0.808 µM |  | 145 µM (≈ 294 µg/mL) | 2.4 | < 4.29 | 
9 | CC(=O)N[C@@H](CCCCN=[N+]=[N-])C(=O)NCCC(=O)N[C@@H](CC(C)C)C(=O)N[C@H](C(=O)N[C@@H](Cc1ccccc1)C(=O)N[C@]1(C)CCCCCCC=CCCC[C@@](C)(C(=O)N[C@@H](C)C(=O)N[C@@H](C)C(=O)N[C@@H](C)C(=O)N[C@@H](C)C(=O)N[C@@H](C)C(=O)N[C@@H](C)C(=O)N[C@@H](C)C(=O)N[C@@H](C)C(=O)N[C@@H](C)C(N)=O)NC(=O)[C@H](CC2CCC2)NC(=O)[C@H](CCC(N)=O)NC(=O)[C@H](C)NC(=O)[C@H](Cc2c[nH]c3ccccc23)NC(=O)[C@H](Cc2ccc(O)cc2)NC(=O)[C@H](CCC(=O)O)NC1=O)[C@@H](C)O [MP-759] (Ac-[Lys(N3)][βAla]LTF[R8]EYWAQ[Cba][S5]AAAAAAAAA-NH2; staple 6-13) |  |  | 4.59 | 5.61 | 3.41 µM |  | 15 µM (≈ 35.7 µg/mL) | 3.49 | < 4.29 | 

Source: paper PMC10786919, “Design-rules for stapled peptides with in vivo activity and their application to Mdm2/X antagonists” (Nature Communications, 2024)
